The results in this text go back to article PMC9706920, “Aryloxypropanolamine targets amyloid aggregates and reverses Alzheimer-like phenotypes in Alzheimer mouse models” (Alzheimer's Research & Therapy, 2022).

One data set has as its target T1, Aβ(1–42) (Homo sapiens, UniProt P05067).
T1 construct: Synthesized monomeric Aβ(1–42), […]; […]; IA; made in house; host or cells: chemical synthesis (Fmoc solid phase peptide synthesis)
Description: ThT fluorescence Aβ(1–42) aggregation inhibition assay. The data set is classed as biochemical. As to conditions: compounds at 0.5, 5, 50, 500 μM co-incubated with monomeric Aβ(1–42) 25 μM, 37°C, 3 days; concentration of the printed value not stated. The protocol:
(§1) ThT fluorescence was used to assess the in vitro inhibition of Aβ(1–42) and disaggregation of Aβ(1–42), Aβ(1–40), Aβ(pE3-42), recombinant tau K18, and tau repeats R1, R2, R3, R4 by YIAD compounds. In house synthetic Aβ(1–42) was dissolved in DMSO (1 mM, 100% DMSO) and diluted to 20-fold in deionized water to make 50 μM Aβ(1–42) stocks (5% DMSO). YIAD compounds were first dissolved in DMSO (100 mM, 100% DMSO) and serially diluted with deionized water to make YIAD stocks with concentrations of 1, 10, 100, and 1000 μM (10% DMSO). For the Aβ(1–42) inhibition assay, monomeric Aβ(1–42) stocks and YIAD stocks were co-incubated at 37°C for 3 days. For Aβ(1–42) disaggregation assay, monomeric Aβ(1–42) stocks were preincubated at 37°C for three days to form Aβ(1–42) aggregates, and subsequently, YIAD stocks were added for an additional 3 days. For Aβ(1-40) disaggregation assays, Aβ(1–40) (50 μM, 5% DMSO) was preincubated at 37°C for 3 days to induce aggregation, and co-incubated with YIAD001 and YIAD002 for an additional 3 days. For Aβ(pE3-42) disaggregation assays, in house synthetic Aβ(pE3-42) (50 μM, 5% DMSO) was preincubated at 37°C for 1 day and co-incubated with YIAD002 for an additional 3 days. For tau K18 disaggregation assay, recombinant tau K18 fragments (35 μM) were dissolved in PBS with 0.1 mg/mL of heparin and 100 μM of DTT, then pre-aggregated at 37°C for 3 days. Then, YIAD stocks were added to aggregated K18 fragments for an additional 3 days. For tau repeat disaggregation assays, tau repeats (R1, R2, R3, R4) (35 μM) were dissolved in PBS with 0.1 mg/mL of heparin and 100 μM of DTT, then pre-aggregated at 37°C for 1 day. Then, YIAD002 was added to aggregated repeats for an additional 3 days. Prior to fluorescence intensity measurement, ThT solution (5 μM) was prepared by dissolving ThT, purchased from Sigma-Aldrich (MO, USA) in 50 mM glycine buffer (pH 8.5). To quantify the effect of inhibition and disaggregation, 25 μL of all samples and 75 μL of ThT solution were loaded into a half-area 96-well black plate in triplicate.

In a further data set the test system is 5XFAD mice. The data set can be described thus: Dot blot assay (6E10, A11) of soluble brain lysates of 5XFAD mice, incl. MWCO filtration. The format is in vivo, mouse. To be noted: 50 mg/kg/day, 5 weeks; for Total Aβ (6E10) in cortical lysates after GdnHCl denaturation and 100 kDa MWCO filtration: APP removed. The protocol: To test the in vivo efficacy of YIAD001 and YIAD002, female 5XFAD mice (n = 25) and female wildtype mice (n = 7) were assessed at the age of 4.5 months. YIAD compounds were dissolved in DMSO and diluted in drinking water to a final concentration of 50 mg/kg/day (5% DMSO, 5% Tween) for oral administration. The three compounds, YIAD001, YIAD002, and YIAD003, were freely administered via drinking water to 4.5-month-old 5XFAD mice (n = 6 for each group) for 5 weeks. As a control, 5% DMSO, 5% Tween in drinking water was provided ad libitum to littermate 5XFAD mice (n = 7) and wildtype mice (n = 7) for 5 weeks.
After the administration period, the mice were deeply anaesthetized with 4% avertin through intraperitoneal injection and transcardially perfused with 0.9% saline. Subsequently, the mice were sacrificed for brain excision. Each collected brain was divided through the mid-sagittal section; the hippocampal and cortical regions were dissected from one half and stored at −80°C for subsequent brain lysates, while the other half was immersed in 4% paraformaldehyde (pH 7.4) for 24 h and 30% sucrose for 48 h at 4°C and subsequently deep-froze at −80°C for immunohistochemistry.
Isolated cortical and hippocampal tissue samples were homogenized in ice-cold RIPA buffer with protease inhibitor cocktail and phosphatase inhibitor cocktail. Lysed tissues were incubated in ice for 30 min and subsequently centrifuged at 14,000 rpm at 4°C for 30 min. The supernatants of the brain lysates were collected and soluble protein concentrations were quantified with the Pierce BCA protein assay kit (Thermo Fisher Scientific, USA).
To analyze total and oligomeric amyloid levels, protein samples (12 μg in 2 μL) and prepared in vitro disaggregation assay samples (2 μL) were directly blotted on nitrocellulose membranes. After blocking with 5% skim milk in TBS-T, the membranes were probed with anti-6E10 antibody (1:1,000, Biolegend 803003) and anti-A11 antibody (1:2000, Invitrogen AHB0052) at 4°C overnight. HRP-conjugated goat anti-mouse antibody (1:10,000, Bethyl Laboratories A90-116P) and anti-rabbit secondary antibody (1:10,000, Bethyl Laboratories A120-101P) were used for 6E10 and A11, respectively. Proteins were detected using an ECL kit (Thermo Fisher Scientific, USA). Membranes were washed with TBS-T in between steps, three times for 10 min.
To exclusively investigate soluble Aβ levels in cortical lysates, guanidinium hydrochloride (GdnHCl) in a lysis buffer (5.0 M GdnHCl, 50 mM Tris-HCl, pH 8.0) was utilized to solubilize and denature endogenous Aβ aggregates prior to filtration. The homogenates were incubated with agitation for 3 h at RT. The incubated samples were then quantified to prepare protein samples (10 μg in 4 μL) and were filtered through a 100 kDa molecular weight cut-off (MWCO) filter, centrifuged at 14,000 rpm at RT for 30 min, to remove APP. For subsequent dot blot assay, total […] of the filtrate was spotted onto a nitrocellulose membrane and probed with anti-6E10 antibody (1:1000, Biolegend 803003).

Data set [1] concerns the target T2, recombinant tau K18 aggregates (Homo sapiens, UniProt P10636).
T2 construct: Recombinant tau K18 fragments, […]; made in house; host or cells: Escherichia coli BL21 (DE3)
Description: ThT fluorescence tau K18 disaggregation assay. As to conditions: K18 35 μM pre-aggregated 3 days, 50 and 500 μM compound for additional 3 days; concentration of the printed value not stated. The format is biochemical. Here is the method: as §1, with “For Aβ(pE3-42) disaggregation assays, in house synthetic Aβ(pE3-42) (50 μM, 5% DMSO) was preincubated at 37°C for 1 day and co-incubated with YIAD002 for an additional 3 days. For tau K18 disaggregation assay, recombinant tau K18 fragments (35 μM) were dissolved in PBS with 0.1 mg/mL of heparin and 100 μM of DTT, then pre-aggregated at 37°C for 3 days. Then, YIAD stocks were added to aggregated K18 fragments for an additional 3 days. For tau repeat disaggregation assays, tau repeats (R1, R2, R3, R4) (35 μM) were dissolved in PBS with 0.1 mg/mL of heparin and 100 μM of DTT, then pre-aggregated at 37°C for 1 day. Then, YIAD002 was added to aggregated repeats for an additional 3 days.” left out

T2 sequence (P10636 561-689): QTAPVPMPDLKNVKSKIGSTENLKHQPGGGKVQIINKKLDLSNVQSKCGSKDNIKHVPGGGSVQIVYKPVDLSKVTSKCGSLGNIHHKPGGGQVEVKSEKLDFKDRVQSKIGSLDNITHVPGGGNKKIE
T1 sequence (P05067 672-713 limits assumed): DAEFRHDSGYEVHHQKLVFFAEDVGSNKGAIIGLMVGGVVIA

Regarding `CCC(C)(C)c1ccc(OCC(O)CN2CCCC2)c(C(C)(C)CC)c1.Cl` (stereo not drawn) [YIAD002, 1-(3-(2,4-Di-tert-pentylphenoxy)-2-hydroxypropyl)pyrrolidin-1-ium chloride], the melting point (usually the temperature of the solid-liquid transition) lay within 179.8 to 180.7 °C. Moreover, the “Inhibition of Aβ(1–42) fibrillation (ThT fluorescence)” value on Aβ(1–42) was determined as 98.15%. Moreover, the “Total Aβ (6E10) in cortical lysates after GdnHCl denaturation and 100 kDa MWCO filtration” value in the data set with 5XFAD mice is “reduction of Aβ”. In the data set on 5XFAD mice (soluble fraction), the “6E10-detected total Aβ, cortical lysates” value is reported as “significantly reduced”; the “6E10-detected total Aβ, hippocampus” value is “not significantly changed”; the “A11-detected oligomer levels, cortical lysates” value is “trend of reduction”; the “Oligomeric Aβ content (A11), hippocampus” value is given as “significantly reduced”. Besides, in data set [1], the “Reduction of K18 aggregates (disaggregation, ThT)” value is reported as 58.96%.
`CCC(C)(C)c1ccc(OCC(O)CN2CCOCC2)c(C(C)(C)CC)c1.Cl` (stereo not drawn) [YIAD001, 4-(3-(2,4-Di-tert-pentylphenoxy)-2-hydroxypropyl)morpholin-4-ium chloride] returned a melting point of 192.5 to 193.1 °C. Also, the “Inhibition of Aβ(1–42) fibrillation (ThT fluorescence)” value at Aβ(1–42) worked out at 82.55%. In addition, the “Total Aβ (6E10) in cortical lysates after GdnHCl denaturation and 100 kDa MWCO filtration” value in the data set on 5XFAD mice was “reduction of Aβ”. In addition, in the data set on 5XFAD mice (soluble fraction), the “6E10-detected total Aβ, cortical lysates” value was “significantly reduced”; the “6E10-detected total Aβ, hippocampus” value is “not significantly changed”; the “A11-detected oligomer levels, cortical lysates” value was “trend of reduction”. Moreover, the “Reduction of K18 aggregates (disaggregation, ThT)” value in data set [1] is given as 18.06%.
